The test system of one experiment is MOLM-13. Nature of the experiment: Antiproliferative activity in human MOLM13 cells assessed as inhibition of cell proliferation by Cell-titer-Glo method. It is filed as functional.
For a further experiment, the system named is MV4-11. Put plainly: Antiproliferative activity in human MV4-11 cells assessed as inhibition of cell proliferation by Cell-titer-Glo method. It is filed as functional.
The test system of a further experiment is KYSE-520 cell line. Nature of the experiment: Antiproliferative activity in human KYSE520 cells assessed as inhibition of cell proliferation by Cell-titer-Glo method. It is filed as functional.
For another experiment, the system named is OE19. Nature of the experiment: Antiproliferative activity in human OE19 cells assessed as inhibition of cell proliferation by Cell-titer-Glo method. Format: functional.
Experiment [1] can be described thus: Antiproliferative activity in human OE21 cells assessed as inhibition of cell proliferation by Cell-titer-Glo method. It is filed as functional.
For experiment [2], the system named is HUVEC. Nature of the experiment: Antiangiogenic activity in HUVEC assessed as inhibition of cell migration at 2.5 uM incubated for 6 to 24 hrs by wound healing assay. Conditions: Homo sapiens. It is filed as functional, cell-based.
The subject of experiment [3] is HUVEC. Nature of the experiment: Antiangiogenic activity in HUVEC assessed as inhibition of cell migration incubated for 6 to 24 hrs by wound healing assay. Format: functional, cell-based. Conditions: Homo sapiens.

Results on three compounds are retold here after ChEMBL document CHEMBL4316639, “Clavukoellians A-F, Highly Rearranged Nardosinane Sesquiterpenoids with Antiangiogenic Activity from Clavularia koellikeri” (2019).

Molecules are shown by their SMILES. Active and inactive are the calls of the source. The rule behind the calls is not given here.

As for `C[C@@H]1C(=O)O[C@]23C=CC(=O)[C@H]1[C@]2(C)[C@@H](C)CC[C@H]3O`, the GI50 (with MOLM-13; with MV4-11; in the experiment on KYSE-520 cell line; in the experiment on OE19; in experiment [1]) was 6.4 to 8.6 µM throughout.

For `C/C1=C/[C@@]2(C)C(=CCC[C@@H]2C)CC[C@H](O)[C@H]1O`, in the experiment on HUVEC [2], the outcome was Active. In the experiment with HUVEC [3], the Activity result was “Dose-dependent effect”.

For the compound `CC1=C([C@@]2(C)C3=CC(=O)O[C@@H]3CC[C@@H]2C)C(=O)NC1=O`, in the experiment on HUVEC [2], the outcome was Active. Besides, the Activity result in the experiment with HUVEC [3] was “Dose-dependent effect”.

The term GI50 denotes the concentration at which growth is held to half of that of the control.
